According to patent US12351570B2 (MERCK PATENT GMBH, priority 2018, dated 2025):
pIC50: −log10 of the molar value.

system: MDA-MB-231 cells; assay: Extracellular lactate production inhibition after 4 h, MDA-MB-231; conditions: Homo sapiens, MDA-MB-231
Protocol: Extracellular Lactate Production Inhibition after 4 h
Cells were plated in growth media supplemented with 10% FBS, followed by overnight recovery at 37° C., 5% CO2. […] Plates were then moved for 4 h incubation at 37° C., 5% CO2 with subsequent 20 μl media transfer to empty 384-well transparent plates. […] Plates were short-spun and measured kinetically in absorbance mode (530 nm, 12 min measurement time with 2-minute intervals between subsequent readouts at 30° C.). Differences in the signal between T8 min and T0min were normalized to vehicle (cells w/ 0.25% DMSO) and quasi-positive (LCIS buffer w/ 0.25% DMSO) controls and plotted against logarithmically-transformed test compound concentrations with fitting the 4-parameter model in GraphPad Prism software.

`COc1cccc(-c2cccc(S(=O)(=O)Nc3ccccc3C#Cc3ccc(C(=O)O)nc3)c2)n1` [Compound 127, 5-(2-{2-[3-(6-methoxypyridin-2-yl)benzenesulfonamido]phenyl}-ethynyl)pyridine-2-carboxylic acid] and `COC(=O)c1ccc(C#Cc2ccccc2NS(=O)(=O)c2cccc(-c3cccnc3)c2)cn1` [Compound 131, methyl 5-(2-{2-[3-(pyridin-3-yl)benzenesulfonamido]phenyl}-ethynyl)pyridine-2-carboxylate] fall in the same range of pIC50: 6.00 to 7.00 for the first, 6.00 to 7.00 for the second.

`O=C(O)c1ccc(C#Cc2ccccc2NS(=O)(=O)c2ccc(Br)c3ccccc23)cn1` [Compound 128, 5-{2-[2-(4-bromonaphthalene-1-sulfonamido)phenyl]ethynyl}pyridine-2-carboxylic acid] and `O=C(O)c1ccc(C#Cc2ccccc2NS(=O)(=O)c2ccccc2-c2ccccc2)cn1` [Compound 141, 5-[2-(2-{[1,1′-biphenyl]-2-sulfonamido}phenyl)ethynyl]pyridine-2-carboxylic acid] fall in the same range of pIC50: 6.00 to 7.00 for the first, 6.00 to 7.00 for the second.

`COC(=O)c1ccc(C#Cc2ccccc2NS(=O)(=O)c2ccc(OC)c3cccnc23)cn1` [Compound 129, methyl 5-{2-[2-(5-methoxyquinoline-8-sulfonamido)phenyl]ethynyl}pyridine-2-carboxylate] and `COC(=O)c1ccc(C#Cc2ccccc2NS(=O)(=O)c2c(C)ccc3cccnc23)cn1` [Compound 143, methyl 5-{2-[2-(7-methylquinoline-8-sulfonamido)phenyl]ethynyl}pyridine-2-carboxylate] fall in the same range of pIC50: 7.00 to 8.00 for the first, 7.00 to 8.00 for the second.

First: COc1ccc(S(=O)(=O)Nc2ccccc2C#Cc2ccc(C(=O)O)nc2C)c2ncccc12 [Compound 130, 5-{2-[2-(5-methoxyquinoline-8-sulfonamido)phenyl]ethynyl}-6-methylpyridine-2-carboxylic acid]
Second: Cc1ccc2cccnc2c1S(=O)(=O)Nc1ccccc1C#Cc1cnc(C(=O)O)cc1Cl [Compound 149, 4-chloro-5-{2-[2-(7-methylquinoline-8-sulfonamido)phenyl]ethynyl}pyridine-2-carboxylic acid]
The pIC50 of the first is lower: 4.00 to 6.00 for the first, 7.00 to 8.00 for the second.

First: COC(=O)c1ccc(C#Cc2ccccc2NS(=O)(=O)c2ccc3c(c2)Cc2ccccc2-3)cn1 [Compound 132, methyl 5-{2-[2-(9H-fluorene-2-sulfonamido)phenyl]ethynyl}pyridine-2-carboxylate]
Second: COC(=O)c1ccc(C#Cc2ccccc2NS(=O)(=O)c2ccccc2-c2ccccc2)cn1 [Compound 135, methyl 5-[2-(2-{[1,1′-biphenyl]-2-sulfonamido}phenyl)ethynyl]pyridine-2-carboxylate]
The pIC50 of the first is higher: 7.00 to 8.00 for the first, 6.00 to 7.00 for the second.

`COC(=O)c1ccc(C#Cc2ccccc2NS(=O)(=O)c2ccc(-n3cccn3)cc2)cn1` [Compound 133, methyl 5-(2-{2-[4-(1H-pyrazol-1-yl)benzenesulfonamido]phenyl}-ethynyl)pyridine-2-carboxylate] and `O=C(O)c1ccc(C#Cc2ccccc2NS(=O)(=O)c2ccc(-n3cccn3)cc2)cn1` [Compound 142, 5-(2-{2-[4-(1H-pyrazol-1-yl)benzenesulfonamido]phenyl}-ethynyl)pyridine-2-carboxylic acid] fall in the same range of pIC50: 6.00 to 7.00 for the first, 6.00 to 7.00 for the second.

`COC(=O)c1ccc(C#Cc2cc(F)ccc2NS(=O)(=O)c2c(C)ccc3cccnc23)cn1` [Compound 134, methyl 5-{2-[5-fluoro-2-(7-methylquinoline-8-sulfonamido)phenyl]ethynyl}pyridine-2-carboxylate] and `COC(=O)c1cc(C)c(C#Cc2cc(F)ccc2NS(=O)(=O)c2c(C)ccc3cccnc23)cn1` [Compound 146, methyl 5-{2-[5-fluoro-2-(7-methylquinoline-8-sulfonamido)phenyl]ethynyl}-4-methylpyridine-2-carboxylate] fall in the same range of pIC50: 7.00 to 8.00 for the first, 7.00 to 8.00 for the second.

First: COC(=O)c1ccc(C#Cc2ccccc2NS(=O)(=O)c2cnn(-c3ccccc3)c2)cn1 [Compound 136, methyl 5-{2-[2-(1-phenyl-1H-pyrazole-4-sulfonamido)phenyl]ethynyl}pyridine-2-carboxylate]
Second: Cn1c2ccccc2c2ccc(S(=O)(=O)Nc3ccccc3C#Cc3ccc(C(=O)O)nc3)cc21 [Compound 150, 5-{2-[2-(9-methyl-9H-carbazole-2-sulfonamido)phenyl]ethynyl}pyridine-2-carboxylic acid]
The pIC50 of the first is lower: 4.00 to 6.00 for the first, 6.00 to 7.00 for the second.

First: COC(=O)c1cc(C)c(C#Cc2ccccc2NS(=O)(=O)c2c(C)ccc3cccnc23)cn1 [Compound 137, methyl 4-methyl-5-{2-[2-(7-methylquinoline-8-sulfonamido)phenyl]ethynyl}pyridine-2-carboxylate]
Second: COC(=O)c1cc(Cl)c(C#Cc2ccccc2NS(=O)(=O)c2c(C)ccc3cccnc23)cn1 [Compound 152, methyl 4-chloro-5-{2-[2-(7-methylquinoline-8-sulfonamido)phenyl]-ethynyl}pyridine-2-carboxylate]
The pIC50 of the first is lower: 6.00 to 7.00 for the first, 7.00 to 8.00 for the second.

`Cc1cc(C(=O)O)ncc1C#Cc1cc(F)ccc1NS(=O)(=O)c1ccc(-c2ccccc2)cc1` [Compound 138, 5-[2-(2-{[1,1′-biphenyl]-4-sulfonamido}-5-fluorophenyl)ethynyl]-4-methylpyridine-2-carboxylic acid] and `COC(=O)c1cc(C)c(C#Cc2cc(F)ccc2NS(=O)(=O)c2ccc(-c3ccccc3)cc2)cn1` [Compound 139, methyl 5-[2-(2-{[1,1′-biphenyl]-4-sulfonamido}-5-fluorophenyl)ethynyl]-4-methylpyridine-2-carboxylate] fall in the same range of pIC50: 6.00 to 7.00 for the first, 6.00 to 7.00 for the second.

`COC(=O)c1ccc(C#Cc2ccccc2N(Cc2ccc3ccccc3c2)C(N)=O)cn1` [Compound 140, methyl 5-[2-(2-{carbamoyl[(naphthalen-2-yl)methyl]amino}phenyl)ethynyl]pyridine-2-carboxylate] and `NC(=O)N(Cc1ccc2ccccc2c1)c1ccccc1C#Cc1ccc(C(=O)O)nc1` [Compound 147, 5-[2-(2-{carbamoyl[(naphthalen-2-yl)methyl]amino}phenyl)ethynyl]pyridine-2-carboxylic acid] fall in the same range of pIC50: 6.00 to 7.00 for the first, 6.00 to 7.00 for the second.

Compared with `O=C(O)c1ccc(C#Cc2ccccc2NS(=O)(=O)N2CCCC3CCCCC32)cn1` (stereo not drawn) [Compound 144, 5-(2-{2-[(decahydroquinoline-1-sulfonyl)amino]phenyl}ethynyl)pyridine-2-carboxylic acid], `O=C(O)c1ccc(C#Cc2ccccc2NS(=O)(=O)N2CCc3cccnc32)cn1` [Compound 145, 5-{2-[2-({1H,2H,3H-pyrrolo[2,3-b]pyridine-1-sulfonyl}amino)phenyl]-ethynyl}pyridine-2-carboxylic acid] is lower in pIC50: 7.00 to 8.00 for the first, 4.00 to 6.00 for the second.

Compared with `Cc1cc(C(=O)O)ncc1C#Cc1cc(F)ccc1NS(=O)(=O)c1c(C)ccc2cccnc12` [Compound 148, 5-{2-[5-fluoro-2-(7-methylquinoline-8-sulfonamido)phenyl]ethynyl}-4-methylpyridine-2-carboxylic acid], `O=C(O)c1ccc(C#Cc2ccccc2NC(=O)N2CCCc3cccnc32)cn1` [Compound 151, 5-(2-{2-[(1,2,3,4-tetrahydro-1,8-naphthyridine-1-carbonyl)amino]phenyl}-ethynyl)pyridine-2-carboxylic acid] is lower in pIC50: 7.00 to 8.00 for the first, 6.00 to 7.00 for the second.

Work on `O=C(O)c1ccc(C#Cc2ccccc2NS(=O)(=O)c2ccc(-c3ccccc3)cc2)cc1` [Compound 153, 4-[2-(2-{[1,1′-biphenyl]-4-sulfonamido}phenyl)ethynyl]benzoic acid] yielded a pIC50 of 6.00 to 7.00.
